{"source": "patent US20180214583A1", "about": "“PHARMACEUTICAL COMBINATION FOR THE TREATMENT OF CANCER” (BAYER PHARMA AKTIENGESELLSCHAFT, priority 2015, published 2018)", "key": {"[1]": {"tested_on": "bone metastatic prostate tumors", "test": "Radium-223 with anti-PD-L1 immunotherapy in bone metastatic prostate cancer mice models", "type": "in vivo", "experimental": "PD-L1 expression after Ra-223 treatment, and blocking PD-L1 combined with Ra-223 as a treatment for bone metastatic prostate cancer is examined in bone metastatic prostate cancer mice models.\nThe safety and efficacy of Ra-223 combined with anti-PD-L1 antibody versus Ra-223 or […] alone and radiation therapy as controls are tested. A genetically engineered mouse model (Pten/Smad4-null FVB mice, Ding et al., Nature 2011) is used. Treatments are initiated in mice with established tumors. The goal here is to evaluate treatment efficacy. At the experimental endpoint, tumor volume, metastatic burden (lung and liver) and mouse survival is measured."}, "[2]": {"settings": "single dose 250 kBq per kg body weight; cited from earlier work"}, "[3]": {"tested_on": "diffuse large B-cell lymphoma (DLBCL)", "settings": "cited from earlier work"}}, "data": [{"molecule": "[Cl][223Ra][Cl]", "note": "[radium-223, radium-223 dichloride]", "values": [{"measurement": "PD-L1 expression after treatment", "setting": "[1]", "result": "upregulates PD-L1 expression"}, {"measurement": "cases of grade 3 neutropenia", "setting": "[2]", "result": "1/5"}, {"measurement": "observed adverse reactions", "setting": "[2]", "result": "diarrhea and reversible myelosuppression"}]}, {"molecule": "CT-011: humanized IgG 1 monoclonal antibody against PD-1", "values": [{"measurement": "subjects progression-free at the end of the follow-up period", "setting": "[3]; DLBCL subjects after autologous stem cell transplantation, preliminary results, control group 47%", "result": 70, "unit": "%"}, {"measurement": "subjects alive", "setting": "[3]; DLBCL subjects after autologous stem cell transplantation, preliminary results, control group 62%", "result": 82, "unit": "%"}, {"measurement": "effect on natural killer cells", "setting": "[3]; phase II trial", "result": "augments the activity of natural killer cells"}]}]}
